pIC50: −log10 of the molar value.
Each compound was assayed against T1, human TNAP (Homo sapiens, UniProt P05186) (assay: Inhibitory test of TNAP activity (pNPP substrate, p-nitrophenol production)). Conditions: human TNAP from culture supernatant of transfected COS1 cells, 60 minutes at room temperature, ABS 405 nm.
T1 construct: host or cells: COS1 cells, concentrated and dialyzed culture supernatant
T1 sequence (P05186 18-502 limits assumed): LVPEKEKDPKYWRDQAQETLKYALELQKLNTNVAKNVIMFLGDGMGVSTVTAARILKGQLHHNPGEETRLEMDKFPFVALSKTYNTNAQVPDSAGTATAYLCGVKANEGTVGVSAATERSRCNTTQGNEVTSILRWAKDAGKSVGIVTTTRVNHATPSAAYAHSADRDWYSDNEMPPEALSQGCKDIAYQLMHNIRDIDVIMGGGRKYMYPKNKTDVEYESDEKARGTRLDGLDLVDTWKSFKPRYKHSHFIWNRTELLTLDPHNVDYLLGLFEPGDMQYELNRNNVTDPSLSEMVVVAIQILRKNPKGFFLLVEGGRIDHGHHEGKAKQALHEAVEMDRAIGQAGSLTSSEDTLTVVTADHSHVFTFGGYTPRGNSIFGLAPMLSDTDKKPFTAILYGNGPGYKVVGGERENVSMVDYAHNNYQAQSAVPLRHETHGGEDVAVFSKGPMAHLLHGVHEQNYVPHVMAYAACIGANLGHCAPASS
Assay type: biochemical
Procedure: <Test Examples> (Test Example 1) Inhibitory Test of TNAP Activity
COS1 cells (DS Pharma Biomedical Co., Ltd.) were transfected with human TNAP (OriGene Technologies, Inc.) using Lipofectamine LTX & Plus reagent (Invitrogen Corp.). On the next day, the medium was replaced with a fresh medium, and the cells were cultured in an incubator for 3 days. After 3 days, the culture supernatant was collected and concentrated by centrifugation at 5000 G for 30 minutes using Amicon 14, 10^4 cut (Merck Millipore). The concentrated culture supernatant was dialyzed against 5 L of 50 mM Tris/200 mM NaCl/1 mM MgCl2/20 μM ZnCl2 twice and used as an enzyme source (enzyme solution). The substrate pNPP (ProteoChem Inc.) was adjusted to 3.1 mM with Milli-Q water, and a solution of each test compound dissolved in dimethyl sulfoxide (DMSO; Wako Pure Chemical Industries, Ltd.) by 6 serial dilutions at a 5-fold common ratio from 100 μM or DMSO was added thereto at a final concentration of 1% by volume. The enzyme solution adjusted to 2 μg/mL with an assay buffer (200 mM Tris/2 mM MgCl2/0.04 mM ZnCl2/0.01% Tween 20) was added in the same amount of the substrate solution and incubated at room temperature for 60 minutes. Then, the absorbance (ABS: 405 nm) was measured using a microplate reader (model plus 384, Molecular Devices, LLC), and the concentration of produced p-nitrophenol was calculated.
`Cc1ncncc1S(=O)(=O)Nc1c(F)cc(Cl)cc1-c1ccc(OC(C)(C)C(=O)O)cc1` [Example 23, 2-({5′-Chloro-3′-fluoro-2′-[(4-methylpyrimidine-5-sulfonyl)amino][1,1′-biphenyl]-4-yl}oxy)-2-methylpropanoic acid] was tested, and the pIC50 was 8.62.
Compound `Cc1cncc(S(=O)(=O)Nc2c(F)cc(Cl)cc2-c2ccc(C(C)C(=O)O)cc2)c1` (racemic) [Example 32, 2-{5′-Chloro-3′-fluoro-2′-[(5-methylpyridine-3-sulfonyl)amino][1,1′-biphenyl]-4-yl}propanoic acid] has a pIC50 of 9.77.
Work on `O=C(O)COc1ccc(-c2cc(Cl)cc(F)c2NS(=O)(=O)c2cccnc2)cc1` [Example 16, ({5′-Chloro-3′-fluoro-2′-[(pyridine-3-sulfonyl)amino][1,1′-biphenyl]-4-yl}oxy)acetic acid] yielded a pIC50 of 8.62.
In the case of `Cc1cncc(S(=O)(=O)Nc2c(F)cc(Cl)cc2-c2ccc(OC(C)(C)C(=O)O)c(F)c2)c1` [Example 27, 2-({5′-Chloro-3,3′-difluoro-2′-[(5-methylpyridine-3-sulfonyl)amino][1,1′-biphenyl]-4-yl}oxy)-2-methylpropanoic acid], the pIC50 was 9.17.
With `Cc1cncc(S(=O)(=O)Nc2c(F)cc(Cl)cc2-c2ccc(CCC(=O)O)cc2)c1C` [Example 31, 3-{5′-Chloro-2′-[(4,5-dimethylpyridine-3-sulfonyl)amino]-3′-fluoro[1,1′-biphenyl]-4-yl}propanoic acid] the pIC50 was 9.74.
`CC(Oc1ccc(-c2cc(Cl)cc(Cl)c2NS(=O)(=O)c2cccnc2)cc1)C(=O)O` (stereo not drawn) [Example 13, 2-({3′,5′-Dichloro-2′-[(pyridine-3-sulfonyl)amino][1,1′-biphenyl]-4-yl}oxy)propanoic acid] gave a pIC50 of 8.46.
Compound `COc1cncc(S(=O)(=O)Nc2c(F)cc(Cl)cc2-c2ccc(OC(C)(C)C(=O)O)cc2)c1` [Example 18, 2-({5′-Chloro-3′-fluoro-2′-[(5-methoxypyridine-3-sulfonyl)amino][1,1′-biphenyl]-4-yl}oxy)-2-methylpropanoic acid] has a pIC50 of 9.64.
Compound `Cc1cncc(S(=O)(=O)Nc2c(F)cc(Cl)cc2-c2ccc(OC(C)(C)C(=O)O)cc2)c1` [Example 3, 2-({5′-Chloro-3′-fluoro-2′-[(5-methylpyridine-3-sulfonyl)amino][1,1′-biphenyl]-4-yl}oxy)-2-methylpropanoic acid] has a pIC50 of 9.62.
Compound `CC(C)Oc1cncc(S(=O)(=O)Nc2c(F)cc(Cl)cc2-c2ccc(CCC(=O)O)cc2)c1` [Example 30, 3-[5′-Chloro-3′-fluoro-2′-({5-[(propan-2-yl)oxy]pyridine-3-sulfonyl}amino)[1,1′-biphenyl]-4-yl]propanoic acid] has a pIC50 of 9.62.
`COc1cncc(S(=O)(=O)Nc2c(Cl)cc(Cl)cc2-c2ccc(S(C)(=O)=O)c(F)c2)c1` [Example 21, N-[3,5-Dichloro-3′-fluoro-4′-(methanesulfonyl)[1,1′-biphenyl]-2-yl]-5-methoxypyridine-3-sulfonamide] showed a pIC50 of 8.92.
Compound `COc1cncc(S(=O)(=O)Nc2c(Cl)cc(Cl)cc2-c2ccc(CC(=O)O)cc2)c1` [Example 22, {3′,5′-Dichloro-2′-[(5-methoxypyridine-3-sulfonyl)amino][1,1′-biphenyl]-4-yl}acetic acid] has a pIC50 of 9.55.
`Cc1cncc(S(=O)(=O)Nc2c(F)cc(Cl)cc2-c2ccc(OCC(=O)O)cc2)c1` [Example 17, ({5′-Chloro-3′-fluoro-2′-[(5-methylpyridine-3-sulfonyl)amino][1,1′-biphenyl]-4-yl}oxy)acetic acid] gave a pIC50 of 9.52.
`CC(C)Oc1cncc(S(=O)(=O)Nc2c(F)cc(Cl)cc2-c2ccc(OC(C)(C)C(=O)O)cc2)c1` [Example 26, 2-{[5′-Chloro-3′-fluoro-2′-({5-[(propan-2-yl)oxy]pyridine-3-sulfonyl}amino)[1,1′-biphenyl]-4-yl]oxy}-2-methylpropanoic acid] showed a pIC50 of 9.72.
Compound `COc1ccncc1S(=O)(=O)Nc1c(F)cc(Cl)cc1-c1ccc(OC(C)(C)C(=O)O)cc1` [Example 25, 2-({5′-Chloro-3′-fluoro-2′-[(4-methoxypyridine-3-sulfonyl)amino][1,1′-biphenyl]-4-yl}oxy)-2-methylpropanoic acid] has a pIC50 of 9.39.
`CCC(C(=O)O)c1ccc(-c2cc(Cl)cc(F)c2NS(=O)(=O)c2cncc(C)c2)cc1` (stereo not drawn) [Example 33, 2-{5′-Chloro-3′-fluoro-2′-[(5-methylpyridine-3-sulfonyl)amino][1,1′-biphenyl]-4-yl}butanoic acid] showed a pIC50 of 9.85.
`CC(C)(Oc1ccc(-c2cc(Cl)cc(F)c2NS(=O)(=O)c2cncc(S(C)(=O)=O)c2)cc1)C(=O)O` [Example 28, 2-[(5′-Chloro-3′-fluoro-2′-{[5-(methanesulfonyl)pyridine-3-sulfonyl]amino}[1,1′-biphenyl]-4-yl)oxy]-2-methylpropanoic acid] gave a pIC50 of 8.59.
Compound `COc1cncc(S(=O)(=O)Nc2c(Cl)cc(Cl)cc2-c2ccc(OC(C)C(=O)O)cc2)c1` (stereo not drawn) [Example 19, 2-({3′,5′-Dichloro-2′-[(5-methoxypyridine-3-sulfonyl)amino][1,1′-biphenyl]-4-yl}oxy)propanoic acid] has a pIC50 of 9.31.
Compound `Cc1cncc(S(=O)(=O)Nc2c(Cl)cc(Cl)cc2-c2ccc(OC(C)(C)C(=O)O)cc2)c1` [Example 2, 2-({3′,5′-Dichloro-2′-[(5-methylpyridine-3-sulfonyl)amino][1,1′-biphenyl]-4-yl}oxy)-2-methylpropanoic acid] has a pIC50 of 9.30.
With `Cc1cncc(S(=O)(=O)Nc2c(Cl)cc(Cl)cc2-c2ccc(OCC(=O)O)cc2)c1` [Example 15, ({3′,5′-Dichloro-2′-[(5-methylpyridine-3-sulfonyl)amino][1,1′-biphenyl]-4-yl}oxy)acetic acid] the pIC50 was 9.05.
`CCc1ccncc1S(=O)(=O)Nc1c(F)cc(Cl)cc1-c1ccc(OC(C)(C)C(=O)O)cc1` [Example 24, 2-({5′-Chloro-2′-[(4-ethylpyridine-3-sulfonyl)amino]-3′-fluoro[1,1′-biphenyl]-4-yl}oxy)-2-methylpropanoic acid] gave a pIC50 of 9.70.
In the case of `CC(C)(Oc1ccc(-c2cc(Cl)cc(Cl)c2NS(=O)(=O)c2cccnc2)cc1)C(=O)O` [Example 14, 2-({3′,5′-Dichloro-2′-[(pyridine-3-sulfonyl)amino][1,1′-biphenyl]-4-yl}oxy)-2-methylpropanoic acid], the pIC50 was 8.59.
`O=C(O)COc1ccc(-c2cc(Cl)cc(Cl)c2NS(=O)(=O)c2cccnc2)cc1` [Example 1, ({3′,5′-Dichloro-2′-[(pyridine-3-sulfonyl)amino][1,1′-biphenyl]-4-yl}oxy)acetic acid] gave a pIC50 of 8.26.
For `COc1cncc(S(=O)(=O)Nc2c(Cl)cc(Cl)cc2-c2ccc(C(F)(F)C(=O)O)cc2)c1` [Example 20, {3′,5′-Dichloro-2′-[(5-methoxypyridine-3-sulfonyl)amino][1,1′-biphenyl]-4-yl}(difluoro)acetic acid], the pIC50 was 9.44.

The compounds below were run on plasma ALP (80-90% containing TNAP) (assay: Inhibitory test of plasma TNAP activity in B6 mouse). Conditions: 0.3 mg/kg orally in 0.5% methylcellulose, average inhibition from 0 hour to 6 hours after administration, activity before administration = 100%.
Assay type: in vivo
Procedure: (Test Example 3) Inhibitory Test of Plasma TNAP Activity in B6 Mouse (Charles River Laboratories Japan, Inc.)
After blood sampling from the tail vein using a heparin-treated hematocrit capillary tube (EM Meister Hematocrit Capillary Tube, AS ONE Corp.) (as the sample before compound administration), each test compound suspended in a 0.5% methylcellulose solution (powder purchased from Wako Pure Chemical Industries, Ltd. was adjusted to 0.5% with Otsuka distilled water) was administered orally to the mouse (0.3 mg/kg). 1, 2, 4, 6, and 24 hours after the administration, blood was collected from the tail vein using a heparin-treated hematocrit capillary tube to obtain a plasma sample. The plasma sample was added to an assay buffer (1 M Tris, 1 M MgCl2, 20 mM ZnCl2, and water, pH 7.5), and the mixture was left standing for 5 minutes. Then, the absorbance at 405 nm was measured and used as a blank. The substrate pNPP was added to the plasma sample and incubated at room temperature for 180 minutes. Then, the absorbance (ABS: 405 nm) was measured using a microplate reader (model plus 384, Molecular Devices, LLC), and the concentration of produced p-nitrophenol was calculated. The blank was subtracted from all measurement values to calculate TNAP activity at each time point with the TNAP activity of the sample before compound administration defined as 100%.
It was calculated according to the following expression: 100−((plasma ALP activity at 0 hr+plasma ALP activity at 1 hr)*1/2+(plasma ALP activity at 1 hr+plasma ALP activity at 2 hr)*1/2+(plasma ALP activity at 2 hr+plasma ALP activity at 4 hr)*2/2+(plasma ALP activity at 4 hr+plasma ALP activity at 6 hr)*2/2)/6.
In the case of `Cc1cncc(S(=O)(=O)Nc2c(F)cc(Cl)cc2-c2ccc(CCC(=O)O)cc2)c1C` [Example 31, 3-{5′-Chloro-2′-[(4,5-dimethylpyridine-3-sulfonyl)amino]-3′-fluoro[1,1′-biphenyl]-4-yl}propanoic acid], the “Plasma ALP Inhibition (6 h ave. inhibition %)” value was 82.2%.
`Cc1cncc(S(=O)(=O)Nc2c(F)cc(Cl)cc2-c2ccc(OC(C)(C)C(=O)O)cc2)c1` [Example 3, 2-({5′-Chloro-3′-fluoro-2′-[(5-methylpyridine-3-sulfonyl)amino][1,1′-biphenyl]-4-yl}oxy)-2-methylpropanoic acid] was tested, and the “Plasma ALP Inhibition (6 h ave. inhibition %)” value was 70.5%.
In the case of `CC(C)Oc1cncc(S(=O)(=O)Nc2c(F)cc(Cl)cc2-c2ccc(CCC(=O)O)cc2)c1` [Example 30, 3-[5′-Chloro-3′-fluoro-2′-({5-[(propan-2-yl)oxy]pyridine-3-sulfonyl}amino)[1,1′-biphenyl]-4-yl]propanoic acid], the “Plasma ALP Inhibition (6 h ave. inhibition %)” value was 69.9%.
With `Cc1cncc(S(=O)(=O)Nc2c(F)cc(Cl)cc2-c2ccc(CCC(=O)O)cc2)c1` [Example 4, 3-{5′-Chloro-3′-fluoro-2′-[(5-methylpyridine-3-sulfonyl)amino][1,1′-biphenyl]-4-yl}propanoic acid] the “Plasma ALP Inhibition (6 h ave. inhibition %)” value was 80.2%.

From patent US11932600B2, “Biaryl derivative” (DAIICHI SANKYO COMPANY, LIMITED, priority 2018, dated 2024)
